This is an account of results in ChEMBL document CHEMBL5360568, “Synthesis and anti-Alzheimer potential of novel α-amino phosphonate derivatives and probing their molecular interaction mechanism with acetylcholinesterase” (Eur J Med Chem, 2023).

Each structure is given as a SMILES string. Activity calls are given as the source filed them. The rule behind the calls is not given here. Where only a bound is given, the exact number is not on record here.

For data set [1], the target named is T1, Acetylcholinesterase (Homo sapiens, UniProt P22303). The data set can be described thus: Inhibition of human erythrocyte AChE using acetylthiocholine iodide as substrate preincubated for 5 mins followed by substrate addition by DTNB based Ellman's method. In general terms: Ellman's reagent forms a yellow product with free thiols.
The target in data set [2] is Cholinesterase (Equus caballus, UniProt P81908). Put plainly: Inhibition of equine serum BuChE using butyrylthiocholine iodide as substrate preincubated for 5 mins followed by substrate addition by DTNB based Ellman's method.
The target in data set [3] is Acetylcholinesterase (Electrophorus electricus, UniProt O42275). The data set can be described thus: Inhibition of electric eel AChE using acetylthiocholine iodide as substrate preincubated for 5 mins followed by substrate addition by DTNB based Ellman's method.
Data set [4] can be described thus: Selectivity ratio, ratio of IC50 for inhibition of equine serum BuChE to IC50 for inhibition of electric eel AChE.
Data set [5] can be described thus: Antioxidant activity assessed as ABTS radical scavenging activity incubated for 30 mins by spectrophotometric analysis. The data set is classed as functional.
The test system of data set [6] is Supercoiled DNA. Put plainly: Induction of supercoiled pBR322 plasmid DNA (unknown origin) cleavage assessed as DNA nicking at 10 uM incubated for 2 hrs by Agarose gel electrophoresis analysis. The data set is classed as nucleic-acid assay.
The target of data set [7] is T1, Acetylcholinesterase. Put plainly: Binding affinity to AChE (unknown origin) assessed as decrease in negative bands intensity towards the baseline at […] incubated for 5 mins by Circular dichroism analysis. The note with it: dose lower 0.001 nM.
The target in data set [8] is T1, Acetylcholinesterase. The data set can be described thus: Binding affinity to AChE (unknown origin) assessed as static fluorescence quenching at pH 7.2 at 0.001 to 0.009 mM incubated for 5 mins by Stern-Volmer quenching plot based fluorescence spectroscopy. The conditions noted are these: dose 0.001-0.009 mM.
Data set [9] concerns the target Amyloid-beta precursor protein (Homo sapiens) (UniProt P05067). Put plainly: Modulation of amyloid beta (1 to 42) (unknown origin) self aggregation assessed as increase in fluorescence intensity at 0.03 to 0.1 uM incubated for 24 hrs by Thioflavin T fluorescence assay. The conditions noted are these: filed as modulator, dose 0.03-0.1 µM.
The nature of data set [10]: Cytotoxicity against human SK-N-SH cells assessed as cell viability at 90 uM incubated for 24 hrs by MTT assay. The class given is toxicity, cell-based. The note with it: read-out: Activity. Background: Tetrazolium dyes change colour on reduction, which living cells bring about.
Data set [11] has as its target T1, Acetylcholinesterase. The data set can be described thus: Binding affinity to AChE (unknown origin) assessed as reduction in intrinsic fluorescence intensity at pH 7.2 at 0.001 to 0.009 mM incubated for 5 mins by fluorescence quenching analysis. The note with it: dose 0.001-0.009 mM.
The target in data set [12] is T1, Acetylcholinesterase. Put plainly: Binding affinity to AChE (unknown origin) assessed as gibbs free energy change at temperature of 298 K at 0.001 to 0.009 mM incubated for 5 mins by fluorescence quenching analysis. The note with it: dose 0.001-0.009 mM.
Data set [13] in a line: Cytotoxicity against human SK-N-SH cells assessed as cell viability at 30 to 60 uM incubated for 24 hrs by MTT assay. The class given is toxicity, cell-based. The note with it: dose 30-60 µM, read-out: Activity.
Data set [14] relates to SK-N-SH. The data set can be described thus: Neuroprotective activity against H2O2 induced oxidative cell damage in human SK-N-SH cells assessed as increase in cell viability at 30 to 60 uM preincubated for 3 hrs followed by H2O2 stimulation for 2 hrs by MTT assay (Rvb= 40%). The class given is functional, cell-based. The conditions noted are these: dose 30-60 µM.
Data set [15] concerns SK-N-SH. The data set can be described thus: Neuroprotective activity against H2O2 induced oxidative cell damage in human SK-N-SH cells assessed as increase in cell viability at 90 uM preincubated for 3 hrs followed by H2O2 stimulation for 2 hrs by MTT assay (Rvb= 40%). The class given is functional.
Data set [16] concerns the target Amyloid-beta precursor protein (Homo sapiens) (UniProt P05067). The data set can be described thus: Modulation of amyloid beta (1 to 42) (unknown origin) assembly assessed as morphological changes in amyloid beta (1 to 42) aggregates at 1 mM incubated for 3 days by FE-SEM image analysis relative to control. The note with it: filed as modulator, time 3.0 day.
The subject of data set [17] is DNA. The data set can be described thus: Induction of pBR322 plasmid DNA (unknown origin) damage assessed as protection against Fenton's reagent induced DNA (unknown origin) damage by observing disappearance of band at 20 to 80 uM incubated for 30 mins by Agarose gel electrophoresis analysis. The class given is nucleic-acid assay. The note with it: dose 20-80 µM.

T1 sequence (P22303 whole entry): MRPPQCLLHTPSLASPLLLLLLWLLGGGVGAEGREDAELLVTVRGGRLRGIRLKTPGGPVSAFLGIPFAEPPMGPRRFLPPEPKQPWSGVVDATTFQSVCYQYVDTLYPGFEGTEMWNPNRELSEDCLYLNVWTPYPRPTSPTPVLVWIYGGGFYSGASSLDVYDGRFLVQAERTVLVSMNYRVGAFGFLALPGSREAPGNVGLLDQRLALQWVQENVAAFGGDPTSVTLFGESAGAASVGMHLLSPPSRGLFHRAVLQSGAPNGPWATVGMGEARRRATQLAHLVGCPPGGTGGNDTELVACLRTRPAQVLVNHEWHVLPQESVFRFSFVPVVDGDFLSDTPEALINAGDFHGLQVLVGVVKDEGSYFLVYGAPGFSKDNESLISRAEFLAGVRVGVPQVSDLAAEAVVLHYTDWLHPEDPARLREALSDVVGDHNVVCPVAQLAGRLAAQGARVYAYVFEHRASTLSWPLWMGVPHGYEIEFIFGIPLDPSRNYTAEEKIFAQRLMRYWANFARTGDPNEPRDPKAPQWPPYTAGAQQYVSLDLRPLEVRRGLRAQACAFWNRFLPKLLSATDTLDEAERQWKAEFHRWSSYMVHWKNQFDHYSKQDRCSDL
Sequence of Cholinesterase (P81908 whole entry): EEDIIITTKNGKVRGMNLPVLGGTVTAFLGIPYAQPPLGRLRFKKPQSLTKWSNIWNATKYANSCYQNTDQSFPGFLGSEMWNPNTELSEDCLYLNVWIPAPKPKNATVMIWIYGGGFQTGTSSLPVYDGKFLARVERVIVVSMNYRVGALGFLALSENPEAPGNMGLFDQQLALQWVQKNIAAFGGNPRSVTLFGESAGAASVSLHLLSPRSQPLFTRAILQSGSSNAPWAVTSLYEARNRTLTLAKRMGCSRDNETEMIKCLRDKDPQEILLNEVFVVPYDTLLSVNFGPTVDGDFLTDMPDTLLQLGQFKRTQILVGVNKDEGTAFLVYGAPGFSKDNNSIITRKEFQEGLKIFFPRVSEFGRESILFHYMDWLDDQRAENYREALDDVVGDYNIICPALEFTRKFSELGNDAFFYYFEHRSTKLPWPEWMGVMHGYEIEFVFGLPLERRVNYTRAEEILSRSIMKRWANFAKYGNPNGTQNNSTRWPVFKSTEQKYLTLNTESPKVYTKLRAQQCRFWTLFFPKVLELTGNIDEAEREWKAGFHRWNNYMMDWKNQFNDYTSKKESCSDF
Sequence of Acetylcholinesterase (Electrophorus electricus, UniProt O42275) (O42275 whole entry): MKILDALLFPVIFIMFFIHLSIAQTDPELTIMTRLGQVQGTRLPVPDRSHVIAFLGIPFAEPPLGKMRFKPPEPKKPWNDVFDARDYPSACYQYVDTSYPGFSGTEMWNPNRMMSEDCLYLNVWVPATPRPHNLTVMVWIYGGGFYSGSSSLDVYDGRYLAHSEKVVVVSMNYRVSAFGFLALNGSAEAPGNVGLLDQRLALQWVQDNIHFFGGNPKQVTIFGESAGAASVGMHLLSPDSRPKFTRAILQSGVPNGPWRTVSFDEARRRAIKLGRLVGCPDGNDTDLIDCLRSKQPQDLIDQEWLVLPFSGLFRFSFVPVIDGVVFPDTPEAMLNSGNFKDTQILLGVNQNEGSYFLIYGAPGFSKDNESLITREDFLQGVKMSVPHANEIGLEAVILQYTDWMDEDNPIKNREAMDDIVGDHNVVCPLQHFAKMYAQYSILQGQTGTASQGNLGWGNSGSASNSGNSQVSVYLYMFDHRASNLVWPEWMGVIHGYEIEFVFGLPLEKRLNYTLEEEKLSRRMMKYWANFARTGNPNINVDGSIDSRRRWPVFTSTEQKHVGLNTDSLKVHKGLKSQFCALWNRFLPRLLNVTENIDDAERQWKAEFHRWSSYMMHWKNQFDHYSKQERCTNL
Sequence of Amyloid-beta precursor protein (Homo sapiens) (P05067 whole entry): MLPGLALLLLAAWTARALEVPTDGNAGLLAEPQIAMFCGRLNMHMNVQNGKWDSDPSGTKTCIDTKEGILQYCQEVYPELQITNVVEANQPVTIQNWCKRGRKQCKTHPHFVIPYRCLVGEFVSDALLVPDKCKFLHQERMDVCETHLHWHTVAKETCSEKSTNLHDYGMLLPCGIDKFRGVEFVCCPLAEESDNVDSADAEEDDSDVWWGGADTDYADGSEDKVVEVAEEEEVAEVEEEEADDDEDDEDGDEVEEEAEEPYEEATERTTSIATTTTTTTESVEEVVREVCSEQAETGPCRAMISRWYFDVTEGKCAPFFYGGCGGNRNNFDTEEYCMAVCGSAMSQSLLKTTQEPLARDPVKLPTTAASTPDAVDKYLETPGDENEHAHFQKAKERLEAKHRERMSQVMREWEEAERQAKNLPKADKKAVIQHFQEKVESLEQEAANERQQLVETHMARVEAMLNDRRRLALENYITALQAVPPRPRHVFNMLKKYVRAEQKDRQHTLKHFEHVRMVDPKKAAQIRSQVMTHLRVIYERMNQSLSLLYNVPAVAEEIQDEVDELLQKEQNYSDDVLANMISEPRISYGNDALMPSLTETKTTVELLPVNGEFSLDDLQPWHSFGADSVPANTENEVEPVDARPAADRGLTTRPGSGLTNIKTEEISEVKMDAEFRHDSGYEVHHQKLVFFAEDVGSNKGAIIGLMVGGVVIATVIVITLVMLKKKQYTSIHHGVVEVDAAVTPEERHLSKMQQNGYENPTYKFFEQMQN

A word on the IC50: it is the concentration at which inhibition is half-maximal. As to `CCOP(=O)(OCC)C(Nc1ccccc1C(C)=O)c1ccc(OCc2nc3ccccc3c(=O)n2-c2ccc(F)cc2)c(OC)c1` (configuration not stated), the IC50 in data set [1] amounted to 5.62 µM; in [2], 12.1 µM; in [3] it was 0.378 µM; in data set [5], 50 µM. Further, in [4], the Ratio IC50 was 31.9.
Consider `CCOP(=O)(OCC)C(Nc1ccccc1)c1ccc(OCc2nc3ccccc3c(=O)n2-c2ccc(F)cc2)c(OC)c1` (configuration not stated), for which the IC50 in data set [2] was > 100 µM; in [3], 0.921 µM; in data set [5] it was > 50 µM.
Turning to `CCOP(=O)(OCC)C(Nc1ccccc1CC)c1ccc(OCc2nc3ccccc3c(=O)n2-c2ccc(F)cc2)c(OC)c1` (configuration not stated), the figures for the IC50 in [2], in data set [3] and in data set [5] were 29.6 µM, 0.532 µM and > 50 µM, respectively. The Ratio IC50 in data set [4] was 55.7.
For `CCOP(=O)(OCC)C(Nc1ccc(C)cc1)c1ccc(OCc2nc3ccccc3c(=O)n2-c2ccc(F)cc2)c(OC)c1` (configuration not stated), the 50% inhibitory concentration (IC50) was > 100 µM in data set [2], 0.669 µM in data set [3] and 39.3 µM in [5].
`CCOP(=O)(OCC)C(Nc1ccc(Cl)cc1)c1ccc(OCc2nc3ccccc3c(=O)n2-c2ccc(F)cc2)c(OC)c1` (configuration not stated): the IC50 in data set [2] is > 100 µM; in data set [3], 0.639 µM; in data set [5], 33.2 µM.
Regarding `CCOP(=O)(OCC)C(Nc1nncs1)c1ccc(OCc2nc3ccccc3c(=O)n2-c2ccc(F)cc2)c(OC)c1` (configuration not stated), the IC50 was 3.37 µM in data set [1], > 100 µM in data set [2], 0.361 µM in [3] and > 50 µM in data set [5].
For `CCOP(=O)(OCC)C(Nc1cc(C)ccc1C)c1ccc(OCc2nc3ccccc3c(=O)n2-c2ccc(F)cc2)c(OC)c1` (configuration not stated), the IC50 in [1] is 6.05 µM; in [2], 18.7 µM; in [3] it was 0.414 µM; in [5] it was > 50 µM. Besides, the Ratio IC50 in [4] came out at 45.1.
Consider `CCOP(=O)(OCC)C(Nc1c(C)cccc1C)c1ccc(OCc2nc3ccccc3c(=O)n2-c2ccc(F)cc2)c(OC)c1` (configuration not stated), for which the IC50 in data set [1] is 3.02 µM; in [2] it was > 100 µM; in data set [3], 0.353 µM; in [5] it was > 50 µM.
For the compound `CCOP(=O)(OCC)C(Nc1ccccc1O)c1ccc(OCc2nc3ccccc3c(=O)n2-c2ccc(F)cc2)c(OC)c1` (configuration not stated), the half-maximal inhibitory concentration (IC50) in [2] is > 100 µM; in data set [3], 0.558 µM; in [5] it was 41.2 µM.
In the case of `CCOP(=O)(OCC)C(Nc1ccc(F)cc1)c1ccc(OCc2nc3ccccc3c(=O)n2-c2ccc(F)cc2)c(OC)c1` (configuration not stated), the concentration for half-maximal inhibition (IC50) was 35.4 µM in data set [2], 0.805 µM in [3] and > 50 µM in data set [5]. Moreover, in data set [4], the Ratio IC50 was 43.9.
For `CCOP(=O)(OCC)C(Nc1ccccc1C(F)(F)F)c1ccc(OCc2nc3ccccc3c(=O)n2-c2ccc(F)cc2)c(OC)c1` (configuration not stated), the half-inhibitory concentration (IC50) in data set [1] is 4.93 µM; in data set [2] it was > 100 µM; in data set [3], 0.341 µM; in data set [5], 36.5 µM.
On the same counts, the results for `CCOP(=O)(OCC)C(Nc1ccc([N+](=O)[O-])cc1)c1ccc(OCc2nc3ccccc3c(=O)n2-c2ccc(F)cc2)c(OC)c1` (configuration not stated) are 1.78 µM, > 100 µM, 0.315 µM and 28 µM.
For the compound `Cc1c(C)c2c(c(C)c1O)CCC(C)(C(=O)O)O2` (configuration not stated) [TROLOX], the IC50 in data set [5] was determined as 25.1 µM.
Turning to `CCOP(=O)(OCC)C(Nc1cccc(O)c1)c1ccc(OCc2nc3ccccc3c(=O)n2-c2ccc(F)cc2)c(OC)c1` (configuration not stated), the 50% inhibitory concentration (IC50) in data set [1] is 4.34 µM; in data set [2], > 100 µM; in [3] it was 0.369 µM; in [5], 35.8 µM.
Regarding `CCOP(=O)(OCC)C(Nc1ccccc1Br)c1ccc(OCc2nc3ccccc3c(=O)n2-c2ccc(F)cc2)c(OC)c1` (configuration not stated), the results for the concentration for half-maximal inhibition (IC50) in data set [2], in [3] and in data set [5] were > 100 µM, 0.473 µM and > 50 µM, respectively.
Consider `CCOP(=O)(OCC)C(Nc1ccccc1OC)c1ccc(OCc2nc3ccccc3c(=O)n2-c2ccc(F)cc2)c(OC)c1` (configuration not stated), for which, in data set [6], the result was inactive. In addition, the Activity result in data set [7] was “Dose-Dependent Effect”; in data set [11], “Dose-Dependent Effect”; in data set [15], 65%. Also, the half-maximal inhibitory concentration (IC50) in data set [1] turned out to be 2.65 µM; in data set [2], 10.6 µM; in data set [3] it was 0.296 µM; in [5], 28.8 µM. Further, the result in data set [8], in [9], in [14] and in data set [16] was Active. Moreover, the viability at 24 h, 90 µM in data set [10] stood at 85%. Moreover, in [12], the deltaG was -6.88 kcal/mol. Besides, the viability at 24 h, up to 60 µM in data set [13] was > 90%.
For the compound `CCOP(=O)(OCC)C(Nc1cccc(Cl)c1Cl)c1ccc(OCc2nc3ccccc3c(=O)n2-c2ccc(F)cc2)c(OC)c1` (configuration not stated), the result in data set [6], in [8], in [17], in data set [9], in data set [14] and in data set [16] was Active. Besides, the Activity entry in [7] was “Dose-Dependent Effect”; in data set [11] it was “Dose-Dependent Effect”; in data set [15], 65%. Further, the half-maximal inhibitory concentration (IC50) in [1] was determined as 2.55 µM; in [2], 23.3 µM; in data set [3], 0.306 µM; in data set [5], 29.3 µM. For the same compound, the viability at 24 h, 90 µM in [10] was found to be 85%. Besides, the deltaG in [12] was -6.94 kcal/mol. For the same compound, the viability at 24 h, up to 60 µM in [13] was > 90%. For the same compound, in data set [4], the Ratio IC50 came out at 76.
Take `CCOP(=O)(OCC)C(Nc1ccc(OC)cc1)c1ccc(OCc2nc3ccccc3c(=O)n2-c2ccc(F)cc2)c(OC)c1` (configuration not stated): the results for the IC50 in data set [2], in [3] and in data set [5] were > 100 µM, 0.431 µM and 29 µM, respectively.
As for `CCOP(=O)(OCC)C(Nc1ccccc1C#N)c1ccc(OCc2nc3ccccc3c(=O)n2-c2ccc(F)cc2)c(OC)c1` (configuration not stated), the half-maximal inhibitory concentration (IC50) in data set [1] is 2.94 µM; in data set [2] it was 11 µM; in data set [3] it was 0.322 µM; in data set [5], 39.4 µM. Besides, in data set [4], the Ratio IC50 is 34.2.
As for `CCOP(=O)(OCC)C(Nc1ccccc1C)c1ccc(OCc2nc3ccccc3c(=O)n2-c2ccc(F)cc2)c(OC)c1` (configuration not stated), the IC50 in [1] was 5.35 µM; in [2], 33.8 µM; in [3] it was 0.393 µM; in data set [5] it was > 50 µM. In data set [4], the Ratio IC50 came out at 86.
In the case of `CCOP(=O)(OCC)C(Nc1cc(C)cc(C)c1)c1ccc(OCc2nc3ccccc3c(=O)n2-c2ccc(F)cc2)c(OC)c1` (configuration not stated), the IC50 came out at 26.4 µM in data set [2], 0.465 µM in data set [3] and 46.2 µM in [5]. The Ratio IC50 in data set [4] amounted to 56.8.
Turning to `CCOP(=O)(OCC)C(Nc1ccc(Br)cc1)c1ccc(OCc2nc3ccccc3c(=O)n2-c2ccc(F)cc2)c(OC)c1` (configuration not stated), the 50% inhibitory concentration (IC50) in data set [2] is > 100 µM; in [3] it was 0.487 µM; in data set [5] it was > 50 µM.
Regarding `COc1ccc2c3c1O[C@H]1C[C@@H](O)C=C[C@@]31CCN(C)C2`, the Activity result in data set [9] was “Dose-Dependent Effect”.
